Measured values from article PMC8922281, “Synthesis and In Vitro Biological Evaluation of Quinolinyl Pyrimidines Targeting Type II NADH-Dehydrogenase (NDH-2)” (ACS Infectious Diseases, 2022).
≈ marks a conversion by molar mass, not a printed value. Where “and” joins values, the source holds several entries; their conditions need not be identical. Equal values may be shown once. Read-outs that look alike come from different tables or passages of the source.

How the values were obtained:
MtNDH-2 = MtNDH-2 (Mycobacterium tuberculosis, UniProt P95160); test: biochemical; set-up: species or system M. tuberculosis; details: MtNDH-2 IC50
Chain of MtNDH-2 (P95160 2-463, added parts left off): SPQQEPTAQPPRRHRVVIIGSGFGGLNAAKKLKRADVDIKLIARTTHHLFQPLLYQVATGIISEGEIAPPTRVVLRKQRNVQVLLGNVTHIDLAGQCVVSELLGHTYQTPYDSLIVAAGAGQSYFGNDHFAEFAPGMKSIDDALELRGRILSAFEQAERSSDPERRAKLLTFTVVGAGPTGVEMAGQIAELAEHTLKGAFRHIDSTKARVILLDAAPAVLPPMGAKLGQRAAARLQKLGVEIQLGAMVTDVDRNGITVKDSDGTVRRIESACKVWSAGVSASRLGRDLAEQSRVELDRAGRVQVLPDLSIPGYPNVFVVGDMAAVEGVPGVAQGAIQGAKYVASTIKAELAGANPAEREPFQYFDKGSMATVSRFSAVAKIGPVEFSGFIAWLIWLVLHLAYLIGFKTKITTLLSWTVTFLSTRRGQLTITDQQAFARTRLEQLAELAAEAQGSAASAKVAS

MsNDH-2 = MsNDH-2 (Mycolicibacterium smegmatis, UniProt A0QYD6); test: Inhibition of MsNDH-2 (NADH oxidation with menadione, absorbance at 340 nm); assay type: biochemical, M. smegmatis
Chain of MsNDH-2 (A0QYD6 1-457): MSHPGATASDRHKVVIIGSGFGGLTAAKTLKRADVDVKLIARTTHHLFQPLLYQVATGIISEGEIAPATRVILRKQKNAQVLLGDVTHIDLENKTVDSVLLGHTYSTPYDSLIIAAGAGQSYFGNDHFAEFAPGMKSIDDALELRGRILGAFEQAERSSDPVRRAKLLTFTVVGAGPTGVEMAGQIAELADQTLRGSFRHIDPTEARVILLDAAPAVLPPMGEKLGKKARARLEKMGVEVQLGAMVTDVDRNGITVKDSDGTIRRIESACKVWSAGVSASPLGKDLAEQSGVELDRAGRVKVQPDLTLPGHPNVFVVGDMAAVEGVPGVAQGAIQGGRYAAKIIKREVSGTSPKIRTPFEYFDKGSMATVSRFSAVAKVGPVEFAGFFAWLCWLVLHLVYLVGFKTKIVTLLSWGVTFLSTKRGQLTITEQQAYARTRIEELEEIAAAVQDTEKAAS

[1] = system: E. coli (ATCC 25922, wild-type); test: MIC on ESKAPE pathogens, E. coli wild-type; assay type: cell-based; details: Escherichia coli
[2] = system: E. coli (ΔtolC efflux-defective mutant, isogenic to ATCC 25922); test: microbe, parasite or virus in culture; assay type: cell-based; details: Escherichia coli, ATCC25922, read-out: MIC Ec ΔtolC
[3] = system: E. coli (D22, lpxC mutant, drug-hypersensitive); test: microbe, parasite or virus in culture; assay type: cell-based; details: Escherichia coli, read-out: MIC Ec D22
[4] = system: P. aeruginosa (PAO1, wild-type); test: MIC on ESKAPE pathogens, P. aeruginosa wild-type; assay type: cell-based; details: Pseudomonas aeruginosa
[5] = system: P. aeruginosa (PAO750 efflux-defective mutant, isogenic to PAO1); test: microbe, parasite or virus in culture; assay type: cell-based; details: Pseudomonas aeruginosa, PAO1, read-out: MIC Pa efflux
[6] = system: A. baumannii (ATCC 19606, wild-type); test: MIC on ESKAPE pathogens, A. baumannii; assay type: cell-based; details: Acinetobacter baumannii, ATCC19606; A. baumannii ATCC 19606, wild-type; read-out: MIC Ab WT
[7] = system: S. aureus (ATCC 29213, wild-type); test: MIC on ESKAPE pathogens, S. aureus; assay type: cell-based; details: Staphylococcus aureus, ATCC29213
[8] = system: M. tuberculosis strain H37Rv (ATCC 25618); test: MIC on M. tuberculosis by resazurin reduction microplate assay (REMA); assay type: cell-based; details: Mycobacterium tuberculosis, M. tuberculosis H37Rv, read-out: MIC Mtb
[9] = Cytotoxicity on the MRC-5 cell line (resazurin); assay type: cell-based; details: human, MRC-5SV2 cells, MRC-5SV2, 3 days
Protocol: MRC-5SV2 cells were cultured in Earl’s MEM + 5% FCSi. Assays were performed in 96-well microtiter plates, each well containing about 10^4 cells/well. After 3 days of incubation with or without compounds, cell viability was assessed fluorimetrically after the addition of resazurin (λex 550 nm, λem 590 nm). The results were expressed as % reduction in cell growth/viability compared to untreated control wells and CC50 was determined. Testing/retesting strategy was as described above for HepG2 cells.

[10] = system: E. coli MG1655 ΔtolC resistant mutants; test: microbe, parasite or virus in culture; assay type: cell-based; details: for MIC: Escherichia coli
[11] = system: K. pneumonia (ATCC 13833, wild-type); test: MIC on ESKAPE pathogens, K. pneumoniae
[12] = system: P. aeruginosa PAO1 resistant mutants; test: microbe, parasite or virus in culture; assay type: cell-based
[13] = 95% confidence interval in parentheses, 50 nM enzyme, 50 μM menadione, >100: no significant inhibition at 100 μM
[14] = same IC50 given in μg/mL to assist comparisons with MICs
[15] = ATCC25922, E. coli ATCC 25922, wild-type, read-out: MIC Ec WT
[16] = PAO1, P. aeruginosa PAO1, wild-type, read-out: MIC Pa WT

Structure (SMILES) | IC50 (MtNDH-2) | IC50 (MsNDH-2; [13]) [µM] | IC50 (MsNDH-2; [14]) [µM] | MIC [2] [µg/mL] | MIC [3] [µg/mL] | MIC [5] [µg/mL] | MIC [6] [µg/mL] | MIC [7] [µg/mL] | MIC [8] [µg/mL] | IC50 at 3 days ([9]; resazurin) [µM] | IC50 at 3 days ([9]; value in parentheses) [µg/mL] | MIC Kp WT [11] [µg/mL] | MIC [1, 15] [µg/mL] | MIC [4, 16] [µg/mL] | further results
CC(C)(C)OC(=O)NCC1CCN(c2cc(Nc3ccc4nc(-c5ccc(F)cc5)cc(N)c4c3)nc(N)n2)CC1 [Compound 8g, tert-Butyl ((1-(2-Amino-6-((4-amino-2-(4-fluorophenyl)quinolin-6-yl)amino)pyrimidin-4-yl)piperidin-4-yl)methyl)carbamate] | 0.29 µM and 0.286 µM | 0.58 | 0.537 | 4 (≈ 7.16 µM) | 4 (≈ 7.16 µM) | 128 (≈ 229 µM) | 4 (≈ 7.16 µM) | 4 (≈ 7.16 µM) | 6.8 (≈ 12.2 µM) | 1.4 | 0.8 | 128 (≈ 229 µM) | – | – | MIC ([1]; ATCC25922, read-out: MIC Ec WT): > 128 µg/mL; MIC ([4]; PAO1, read-out: MIC Pa WT): > 128 µg/mL; MIC ([10]; MG1655, read-out: MIC mutant, mutant CH5053 raised against 8g, ackA Leu255Arg): 16 µg/mL (≈ 28.6 µM); MIC ([10]; MG1655, read-out: MIC mutant, mutant CH5054 raised against 8g, ackA Glu375 stop codon): 16 µg/mL (≈ 28.6 µM); MIC ([10]; MG1655, read-out: MIC mutant, mutant CH5055 raised against 8g, ackA Thr233Pro): 16 µg/mL (≈ 28.6 µM); MIC ([10]; MG1655, read-out: MIC mutant, mutant CH5056 raised against 8g, ackA Gly275Asp): 16 µg/mL (≈ 28.6 µM); MIC ([10]; MG1655, read-out: MIC mutant, mutant CH5057 raised against 8g, eno Pro38Leu): 8 µg/mL (≈ 14.3 µM); MIC ([10]; MG1655, read-out: MIC mutant, mutant CH5058 raised against 8g, ackA Ile92fs): 16 µg/mL (≈ 28.6 µM); MIC ([10]; MG1655, read-out: MIC mutant, mutant CH5059 raised against 8g, ackA Arg91Ser): 16 µg/mL (≈ 28.6 µM); MIC ([10]; MG1655, read-out: MIC mutant, mutant CH5062 raised against 8g, ackA Gly241Asp): 16 µg/mL (≈ 28.6 µM); MIC ([10]; MG1655, read-out: MIC mutant, mutant CH5063 raised against 8g, ackA Arg91Leu): 16 µg/mL (≈ 28.6 µM); fold increase of MIC ([10]; mutant CH5053 vs parent E. coli MG1655 ΔtolC): 4; fold increase of MIC ([10]; mutant CH5054 vs parent E. coli MG1655 ΔtolC): 4; fold increase of MIC ([10]; mutant CH5055 vs parent E. coli MG1655 ΔtolC): 4; fold increase of MIC ([10]; mutant CH5056 vs parent E. coli MG1655 ΔtolC): 4; fold increase of MIC ([10]; mutant CH5057 vs parent E. coli MG1655 ΔtolC): 2; fold increase of MIC ([10]; mutant CH5058 vs parent E. coli MG1655 ΔtolC): 4; fold increase of MIC ([10]; mutant CH5059 vs parent E. coli MG1655 ΔtolC): 4; fold increase of MIC ([10]; mutant CH5062 vs parent E. coli MG1655 ΔtolC): 4; fold increase of MIC ([10]; mutant CH5063 vs parent E. coli MG1655 ΔtolC): 4
Nc1nc(Nc2ccc3nc(-c4ccc(F)cc4)cc(N)c3c2)cc(N2CCC(N)CC2)n1 [Compound 8j, N^6-(2-Amino-6-(4-aminopiperidin-1-yl)pyrimidin-4-yl)-2-(4-fluorophenyl)quinoline-4,6-diamine] | 6.1 µM and 6.07 µM | 21 | 21.4 | 16 (≈ 36 µM) | 8 (≈ 18 µM) | 8 (≈ 18 µM) | 128 (≈ 288 µM) | 32 (≈ 72 µM) | 44.5 (≈ 100 µM) | 22 | 9.8 | >128 | 64 (≈ 144 µM) | 4 (≈ 9 µM) | MIC ([12]; Pseudomonas aeruginosa, PAO1, read-out: MIC mutant): 32 µg/mL (≈ 72 µM); fold increase of MIC ([12]; mutant CH5071 vs parent P. aeruginosa PAO1): 8; MIC mutant ([12]; mutant CH5072 raised against 8j, phoQ Leu158fs): 32 µg/mL (≈ 72 µM); fold increase of MIC ([12]; mutant CH5072 vs parent P. aeruginosa PAO1): 8; MIC mutant ([12]; mutant CH5073 raised against 8j, basS (pmrB) Ser257Asn): 32 µg/mL (≈ 72 µM); fold increase of MIC ([12]; mutant CH5073 vs parent P. aeruginosa PAO1): 8; MIC mutant ([12]; mutant CH5075 raised against 8j, basS (pmrB) Ala29Glu): 32 µg/mL (≈ 72 µM); fold increase of MIC ([12]; mutant CH5075 vs parent P. aeruginosa PAO1): 8; MIC mutant ([12]; mutant CH5077 raised against 8j, phoQ Ser151 stop codon): 32 µg/mL (≈ 72 µM); fold increase of MIC ([12]; mutant CH5077 vs parent P. aeruginosa PAO1): 8
CN(C)c1cc(Nc2ccc3nc(-c4ccc(F)cc4)cc(N)c3c2)nc(N)n1 [Compound 8k, N^4-(4-Amino-2-(4-fluorophenyl)quinolin-6-yl)-N^6,N^6-dimethylpyrimidine-2,4,6-triamine] | 1.3 µM and 1.31 µM | 2.7 | 2.82 | 2 (≈ 5.14 µM) | 8 (≈ 20.5 µM) | 4 (≈ 10.3 µM) | 8 (≈ 20.5 µM) | 8 (≈ 20.5 µM) | 5.9 (≈ 15.2 µM) | 1.8 | 0.7 | 64 (≈ 164 µM) | 32 (≈ 82.2 µM) | > 64 | –
CN(CCO)c1cc(Nc2ccc3nc(-c4ccc(F)cc4)cc(N)c3c2)nc(N)n1 [Compound 8l, 2-((2-Amino-6-((4-amino-2-(4-fluorophenyl)quinolin-6-yl)amino)pyrimidin-4-yl)(methyl)amino)ethan-1-ol] | 11 µM and 11.4 µM | 16 | 16.2 | 8 (≈ 19.1 µM) | 8 (≈ 19.1 µM) | > 64 | > 64 | 32 (≈ 76.3 µM) | 9.8 (≈ 23.4 µM) | 7.8 | 3.3 | >64 | 16 (≈ 38.1 µM) | > 64 | –
CNCCN(C)c1cc(Nc2ccc3nc(-c4ccc(F)cc4)cc(N)c3c2)nc(N)n1 [Compound 8m, N^4-(4-Amino-2-(4-fluorophenyl)quinolin-6-yl)-N^6-methyl-N^6-(2-(methylamino)ethyl)pyrimidine-2,4,6-triamine] | 16 µM | 19 | 18.5 | 32 (≈ 74 µM) | 32 (≈ 74 µM) | 16 (≈ 37 µM) | > 64 | > 64 | 21.6 (≈ 49.9 µM) | 7.6 | 3.3 | >64 | > 64 | 32 (≈ 74 µM) | –
